Measured values as given in PubChem BioAssay AID435014 (Vanderbilt High Throughput Screening Facility, 2010).
Activity calls are given as the source filed them.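 How the source made its calls: active means dose response that fits an S-shaped curve with fit quality R squared above 0.5; inactive means the rest.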

What follows are compounds tested against G protein-activated inward rectifier potassium channel 1 (Rattus norvegicus) (UniProt P63251) (assay: alpha2C activation measured by GIRK thallium influx – cell-based, thallium flux, dose response (AID 435014)). Details: HEK293 alpha2C/GIRK1/2, thallium flux fluorescence.
Sequence of G protein-activated inward rectifier potassium channel 1 (Rattus norvegicus) (P63251 whole entry, looked up): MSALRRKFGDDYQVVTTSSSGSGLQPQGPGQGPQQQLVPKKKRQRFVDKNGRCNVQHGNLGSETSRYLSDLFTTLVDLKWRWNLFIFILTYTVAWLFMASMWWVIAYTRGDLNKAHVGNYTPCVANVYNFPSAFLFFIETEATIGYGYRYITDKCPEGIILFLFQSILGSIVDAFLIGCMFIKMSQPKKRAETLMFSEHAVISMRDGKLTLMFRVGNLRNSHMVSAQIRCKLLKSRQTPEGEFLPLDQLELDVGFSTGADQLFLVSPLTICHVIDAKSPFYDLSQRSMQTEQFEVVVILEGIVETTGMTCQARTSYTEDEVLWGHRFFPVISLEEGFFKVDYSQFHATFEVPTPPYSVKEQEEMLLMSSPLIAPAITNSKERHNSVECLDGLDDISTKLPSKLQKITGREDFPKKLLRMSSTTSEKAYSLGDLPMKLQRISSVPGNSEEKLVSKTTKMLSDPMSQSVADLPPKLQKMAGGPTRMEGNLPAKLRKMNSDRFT

Structure (SMILES) | EC50 [nM]
Cc1c2ccncc2c(C)c2c1[nH]c1ccccc12 | 3080
Brc1c(NC2=NCCN2)ccc2nccnc12 | 82
CN(C)c1ccc(/C=C/C(O)=C2/C(=O)N(C)C3(C)CC2c2ccccc2O3)cc1 (stereo not given) | 1990
CC(=O)OCC[N+](C)(C)C | 134
C[C@H]1OC[C@@H](C[N+](C)(C)C)O1 | 393

Same assay, conditions: HEK293 alpha2C/GIRK1/2, thallium flux fluorescence; at 10 µM (top of the series)

Structure (SMILES) | activation
COc1ccc(-c2noc(CCC(=O)Nc3nc4ccccc4s3)n2)cc1 | inactive
Cc1ccc(-c2nn(-c3ccccc3)cc2/C=C(\C#N)c2cccc(C#N)c2)o1 | inactive
COc1ccc(-c2noc(-c3cc(Cl)ccc3Cl)n2)cc1OC | inactive
N#Cc1nc(COc2ccc(Br)cc2)oc1N1CCN(Cc2ccccc2)CC1 | inactive
CCOC(=O)CSc1nc2cc(C(=O)NCc3ccco3)ccc2c(=O)n1-c1ccc(F)cc1 | inactive
CCOc1ccc2nc(NC(=O)CSc3nc4ccccc4c(=O)n3Cc3ccco3)sc2c1 | inactive
COc1cc(C(=O)Nc2cccc(-c3nc4cc(C)ccc4o3)c2)cc(OC)c1OC | inactive
N/C(=N\c1nc2ccccc2o1)NC(=O)c1ccccc1NC(=O)c1ccccc1 | inactive
Cc1ccc(Cl)cc1N1CCN(C(=O)CN2C(=O)c3cccc4cccc2c34)CC1 | inactive
C=CCn1c(=S)[nH]c2ccccc2c1=O | inactive
O=C(NCCSCc1ccco1)Nc1cccc(Cl)c1 | inactive
COC(=O)c1ccc(-c2sc3nc(N4CCOCC4)c4c(c3c2N)CCCC4)o1 | inactive
N#Cc1ccccc1Cn1c(=O)n(Cc2ccc(C(=O)NCc3ccco3)cc2)c(=O)c2ccccc21 | inactive
COC(=O)c1c(NC(=O)c2nn(C)cc2Cl)sc2c1CCCC2 | inactive
CCCOc1ccc(-c2nnn(CC(=O)Nc3cccc(C(=O)OC)c3)n2)cc1 | inactive
CC1(C)Cc2c(C#N)c(SCCOc3ccccc3)nc(N3CCOCC3)c2CO1 | inactive
COc1cccc2c1C(=O)c1c(O)c3c(c(O)c1C2=O)C[C@@](O)(C(C)=O)C[C@@H]3O[C@H]1C[C@H](N)[C@H](O)[C@H](C)O1 | inactive
COc1ccc(-c2oc3ncn4nc(Cc5ccccc5)nc4c3c2-c2ccc(OC)cc2)cc1 | inactive
COC(=O)c1ccccc1NC(=O)c1ccc(-c2ccccc2F)o1 | inactive
COC(=O)c1ccccc1NC(=O)c1noc2c1CC(C(C)(C)C)CC2 (stereo not given) | inactive

Structure (SMILES) | activation
c1ccc2c(-c3nc(C4CCCCC4)no3)cc(-c3ccncc3)nc2c1 | inactive
C[C@]12CC[C@@H]3c4ccc(OC(=O)c5ccccc5)cc4CC[C@H]3[C@@H]1CC[C@@H]2O | inactive
COc1ccc2cc(CN(Cc3ccco3)C(c3nnnn3C3CCCCC3)C(C)C)c(=O)[nH]c2c1 (stereo not given) | inactive
CC1(C)Cc2c(c(N3CCOCC3)nc3sc4c(NCc5ccco5)nnnc4c23)CS1 | inactive
CCCSc1nc(N2CCOCC2)c2c(c1C#N)CCCC2 | inactive
C=CCOC(=O)C1=C(C)NC(SCC(=O)Nc2ccc(C)c(Cl)c2)=C(C#N)C1c1ccco1 (stereo not given) | inactive
O=S(=O)(c1ccc(S(=O)(=O)N(Cc2ccco2)Cc2ccccc2Cl)cc1)N1CCCC1 | inactive
CC(C)(C)c1cc(-c2ccco2)c(C#N)c(SCC#N)n1 | inactive
Cc1ccc(-c2cc(C(F)F)nc(N3CCC(C)CC3)n2)cc1 | inactive
COc1cccc(-c2nc(-c3ccc(NC(=O)Cc4ccccc4OC)cc3)no2)c1 | inactive
CCSc1nnc(NC(=O)NC(CC)(C(F)(F)F)C(F)(F)F)s1 | inactive
CCOC(=O)c1c(-c2ccc(C)o2)csc1NC(=O)COC(=O)c1cccs1 | inactive
CCCCC(=O)O[C@H]1CC[C@H]2[C@@H]3CCc4cc(O)ccc4[C@H]3CC[C@]12C | inactive
CSc1nc2sc3c(c2c(=O)[nH]1)CCC(C)C3 (stereo not given) | inactive
CCOc1ccc(S(=O)(=O)N2CCN(c3ccc(C)cc3C)CC2)cc1 | inactive
COCCOC(=O)c1c(C)oc2ccc(OC(=O)COc3c(F)c(F)c(F)c(F)c3F)cc12 | inactive
Cc1ccc(SCc2c(C#N)c3ccccc3n2C)cc1 | inactive
CCc1cc2c(=O)c(-c3ccc4c(c3)OCCO4)coc2cc1OC(=O)c1ccco1 | inactive
CCOC(=O)c1ccc(NC(=O)NC(C)C2CCCO2)cc1 (stereo not given) | inactive
Cc1sccc1C1C(C#N)=C(N)SC(N)=C1C#N | inactive

Structure (SMILES) | activation
COc1ccc(-c2nnc(SCC(=O)Nc3ccc(Cl)cc3)n2C)cc1 | inactive
Cc1ccc2c(C)nc(Nc3nc(CSc4nnnn4-c4ccccc4)cc(=O)[nH]3)nc2c1 | inactive
COc1cccc2c1C(=O)c1c(O)c3c(c(O)c1C2=O)C[C@@](O)(C(=O)CO)C[C@@H]3O[C@H]1C[C@H](N)[C@H](O)[C@H](C)O1 | inactive
O=c1c(-c2ccc3c(c2)OCCO3)c(C(F)(F)F)oc2cc(O)cc(O)c12 | inactive
N#CCSc1nc2c(c(=O)n1Cc1ccco1)C1(CCCC1)Cc1ccccc1-2 | inactive
N#CCc1nc(CSc2nc3ccccc3s2)cs1 | inactive
O=c1c2ccccc2sn1-c1ccc(S(=O)(=O)N2CCCCC2)cc1 | inactive
COc1ccccc1NC(=O)c1oc2ccccc2c1NC(=O)c1cc(OC)c(OC)c(OC)c1 | inactive
O=S(=O)(c1ccccc1)N(Cc1nc(-c2ccccc2)no1)C1CCCCC1 | inactive
COc1ccc(CN(C(=O)CSc2nnc(-c3ccccc3F)o2)c2ccc(F)cc2)cc1 | inactive
O=C(NCc1ccco1)c1cc2cc3ccc(Cl)cc3nc2o1 | inactive
CCN(CC)c1ccc2cc(C(=O)Nc3ccccn3)c(=O)oc2c1 | inactive
Cc1c(C(=O)NC2CCCc3ccccc32)oc2ccc(S(=O)(=O)N3CCOCC3)cc12 (stereo not given) | inactive
CCOc1nc(-c2ccccc2)ccc1-c1noc(-c2ccc(OC)c(OC)c2)n1 | inactive
O=C(c1ccc(Cl)cc1)N1CCCCC(Sc2nnc(-c3ccc4c(c3)OCO4)o2)C1=O (stereo not given) | inactive
CCOC(=O)c1sc(NC(=O)c2noc3c2CCCC3)c(C(=O)OCC)c1C | inactive
COc1ccc(-c2oc3ncn4nc(COc5ccccc5)nc4c3c2-c2ccc(OC)cc2)cc1 | inactive
C/C(Cl)=C/Cn1c(SCc2ccc(Cl)cc2)nc2c1c(=O)[nH]c(=O)n2C | inactive
CC(=O)OC(C)C[N+](C)(C)C (stereo not given) | inactive
CCC(=O)Oc1ccc(C(CC)C(CC)c2ccc(OC(=O)CC)cc2)cc1 (stereo not given) | inactive
